In data set [1] the test system is ZIKV. Kind of data set: ZIKV antiviral assay. The data set is classed as cell-based. The settings on record: Zika virus, read-out: ZIKV (EC50 μM).
Data set [2] in a line: Cytotoxicity in Vero cells (ZIKV table). The settings on record: African green monkey.
For data set [3] the following is noted: rat, in vivo, po, 50 mg/kg.
In data set [4] the test system is Huh7 (liver) cells. The experiment in a line: Cytotoxicity profile, Huh7 (liver) cells. Particulars: Huh7 (liver) cells (high of range). The format is cell-based.
Data set [5] deals with Ross River virus. Kind of data set: Vero cell cytopathic effect (CPE) model, Ross River virus. The data set is classed as cell-based. For orientation: Protection from cytopathic effect is a common read-out in antiviral testing.
A short description of data set [6]: Toxicology after 6 day q.d. intraperitoneal injections in mice. The format is in vivo. From the text:
Alternatively, drug delivery by aerosol (nasal spray) administration may immediately achieve therapeutic levels of drug in the nasal mucosa and the brain.

The nature of data set [7]: Rodent pharmacokinetic experiment in DBA-1J mice. The format is in vivo. Particulars: for concentration at 24 h: oral, read-out: 24 hr plasma levels. Here is the method:
DBA-1J mice (6-8 weeks old, female) were acclimated for ≥2 days after receipt. Mice were weighed the day before dosing to calculate dosing volumes. Mice were dosed by oral gavage with drug at 30 mg/kg, 100 mg/kg & 300 mg/kg. The mice were sampled at […] time points: 0.5, 1, 2, 3, 4, 8 and 24 hrs (3 mice per time point for test drug). The mice were euthanized and their organs were collected (see below). In order to collected blood, mice with euthanized by CO2 at the appropriate time point listed above. Blood was obtained by cardiac puncture (0.3 ml) at each time point. Following blood collection, the organs were removed from the mice (see below). The blood was processed by inverting Li-Heparin tube with blood gently 2 or 3 times to mix well. The tubes were then placed in a rack in ice water until able to centrifuge (≤1 hour). As soon as practical, the blood was centrifuged at ˜2000×g for 10 min in a refrigerated centrifuge to obtain plasma. Then, using a 200 μL pipette, the plasma was transferred to a labeled 1.5 ml Eppendorf tube in ice water. The plasma was then frozen in freezer or on dry ice. The samples were stored at −80° C. prior to analysis. Organs were collected from euthanized mice. The organs (lungs, liver, kidney, spleen and heart) were removed, placed in a tube, and immediately frozen in liquid nitrogen. The tubes were then transferred to dry ice. The samples were saved in cryogenic tissue vials. Samples were analyzed by LC-MS/MS using an ABSCIEX 5500 QTRAP LC-MS/MS system with a Hypercarb (PGC) column.

Data set [8] is described as follows: Rodent pharmacokinetic experiment in DBA-1J mice. The settings on record: female, mouse, plasma, after IV dosing, read-out: plasma T1/2 (converted). The data set is classed as in vivo.
Data set [9] has as its system CEM cells. Kind of data set: Cytotoxicity profile, CEM cells. The data set is classed as cell-based. Particulars: CEM cells (low of range).
Data set [10] has as its system EEE virus. Kind of data set: organism not typed. The data set is classed as cell-based. The settings on record: Vero.
The nature of data set [11]: in vivo. Particulars: male, SD, rat, po, 50 mg/kg.
Data set [12] deals with CHIK virus. Kind of data set: organism not typed. Particulars: Vero. The format is cell-based.
Data set [13] deals with WEE virus. Kind of data set: organism not typed. Particulars: Vero. The data set is classed as cell-based.
Data set [14] concerns VEE virus. Kind of data set: organism not typed. The data set is classed as cell-based. Particulars: Vero.
For data set [15], the system named is pestivirus, hepacivirus. The settings on record: Stuyver et al., Antimicrob Agents Chemother 2003; cited from earlier work.

Like-named read-outs stand apart in the source and are kept apart here.

Broadly, the EC50 is the concentration giving half of the maximal effect. In general, CC50 refers to the concentration at which the toxic effect on the cells reaches its halfway point. In general, Cmax refers to the peak of the concentration-time curve. By Tmax is commonly meant the time from dosing to the highest level. By bioavailability is commonly meant dose-corrected exposure relative to a reference, in per cent.

Take `O=c1nc(NO)ccn1[C@@H]1O[C@H](CO)[C@H](O)C1O` (stereo partly drawn) [drawing 106]: the EC50 in data set [1] is 4.02 µM. Moreover, the CC50 in data set [2] worked out at 50.4 µM.
For the compound `O=c1nc(NO)ccn1[C@@H]1O[C@H](CO)[C@H](O)C1O` (stereo in doubt) [EIDD-01931, 1-(3,4-dihydroxy-5-(hydroxymethyl)tetrahydrofuran-2-yl)-4-(hydroxyamino)pyrimidin-2-one], the tissue distribution entry in data set [3] is on record as “well distributed into all tissues tested”. The selectivity index in [4] came out at 232; in data set [9], 8. Further, the concentration giving a half-maximal response (EC50) in data set [5] was determined as 2450 nM; in [10] it was 1080 nM; in data set [12] it was 1280 nM; in [13], 1360 nM; in data set [14], 1000 nM. In addition, the “body weight effect at highest dose tested” value in data set [6] (100 mg/kg, 6 day q.d. IP, reversed on cessation of dosing) is recorded as “weight loss was observed”. Besides, in data set [6] (6 day q.d. intraperitoneal (IP) injections), the “NOEL (NO Effect Level)” value amounted to 33 mg/kg. In addition, the “Bioavailability (versus I.P. delivery)” value in data set [7] (30 mg/kg PO dosing) was 65%; in [7] (100 and 300 mg/kg PO dosing), 39-46%. In addition, the maximum concentration (Cmax) in data set [7] (female, DBA-1J, mouse, plasma, PO dosing 30 mg/kg) amounted to 3 ng/mL; in [7] (female, DBA-1J, mouse, plasma, PO dosing 100 mg/kg), 7.7 ng/mL; in [7] (female, DBA-1J, mouse, plasma, PO dosing 300 mg/kg), 11.7 ng/mL. The half-life was 246 to 282 min in [7] (female, DBA-1J, mouse, plasma, after PO dosing, read-out: plasma T1/2) and 132 min in [8]. For the same compound, the Tmax in data set [7] (female, DBA-1J, mouse, plasma, after oral dosing) lay in the range of 15 to 30 min. For the same compound, the concentration at 24 h in [7] (female, DBA-1J, mouse, plasma, after 100 mg/kg dose) was around 100 nM; in [7] (female, DBA-1J, mouse, plasma, after 300 mg/kg P.O. dose), around 400 nM. The compound further gave a bioavailability in data set [11] of 28%. In addition, in data set [15], the antiviral activity entry was “antipestivirus and antihepacivirus activities”.
